What was measured:
[1] = target: T1, human RORγt (Ligand Binding Domain) (Homo sapiens, UniProt P51449); experiment: Fluorescence Polarization (FP) Assay; conditions: Fluorescence Polarization (FP) Assay; values given as upper bounds of activity ranges; read-out: FP activity range
T1 construct: purchased Crelux (Planegg, Germany) batch no PC5032-1
T1 sequence (P51449 269-508 limits assumed): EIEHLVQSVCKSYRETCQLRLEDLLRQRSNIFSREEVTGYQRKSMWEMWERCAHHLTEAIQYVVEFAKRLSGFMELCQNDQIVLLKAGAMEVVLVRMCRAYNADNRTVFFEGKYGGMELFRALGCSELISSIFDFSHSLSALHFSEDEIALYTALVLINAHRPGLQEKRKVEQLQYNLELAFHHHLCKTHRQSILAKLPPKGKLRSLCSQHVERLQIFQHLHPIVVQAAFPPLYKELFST
Method in brief: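 In vitro FP binding assay monitoring ligand binding within the ligand binding pocket. Probe is a TAMRA-labelled RORγt ligand (MW 910 g/mole); DMSO served as negative control.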

[2] = target: T2, yeast Gal4-DNA binding domain fused to the ligand binding domain of human RORγ (Homo sapiens, UniProt P51449); experiment: RORγ Reporter Assay (Gal4); assay type: cell-based; conditions: values given as lower bounds of ranges; for Gal4 activity range @ 0.1 μM (% inhibition): RORγ Reporter Assay (Gal4) at 0.1 μM; for Gal4 activity range @ 1 μM (% inhibition): RORγ Reporter Assay (Gal4) at 1 μM
T2 construct: host or cells: HEK293t
T2 sequence (P51449 269-508 limits assumed): T1 sequence (P51449 269-508 limits assumed)
Method in brief: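 HEK293t reporter cells expressing the hybrid, with Gal4-UAS-driven firefly luciferase, treated in triplicate with compound at 1,000 nM and 100 nM (0.1% DMSO) in medium with 10% charcoal-stripped FBS for 24 h at 37 °C. Luminescence read; percent reduction of RLU calculated relative to vehicle.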

Row | SMILES | IC50 [1] | Gal4 activity range @ 0.1 μM (% inhibition) [2] | Gal4 activity range @ 1 μM (% inhibition) [2]
1 | CC1(CNc2ncnc(N3CCC[C@@H]3c3ccc(C(F)(F)F)cc3)c2F)COC1 [Example 198, 5-fluoro-N-[(3-methyloxetan-3-yl)methyl]-6-[2-[4-(trifluoromethyl)phenyl]pyrrolidin-1-yl]pyrimidin-4-amine] | < 0.5 µM | >20 % inhibition | >80 % inhibition
2 | CC1(CNc2ncnc(N3CCC[C@@H]3c3ccc(C(F)(F)F)cc3)c2F)CCCO1 (stereo partly drawn) [Example 199, 5-fluoro-N-[(2-methyltetrahydrofuran-2-yl)methyl]-6-[(2R)-2-[4-(trifluoromethyl)phenyl]pyrrolidin-1-yl]pyrimidin-4-amine] | < 1 µM | >20 % inhibition | >80 % inhibition
3 | CC1(CNc2ncnc(N3CCC[C@@H]3c3ccc(C(F)(F)F)cc3)c2F)CCCS1 (stereo partly drawn) [Example 201, 5-fluoro-N-[(2-methyltetrahydrothiophen-2-yl)methyl]-6-[(2R)-2-[4-(trifluoromethyl)phenyl]pyrrolidin-1-yl]pyrimidin-4-amine] | < 0.5 µM | >0 % inhibition | >80 % inhibition
4 | O=C(O)CC1CCC(CNc2ncnc(N3CCOC[C@@H]3c3ccc(C(F)(F)F)cc3)c2F)CC1 (stereo partly drawn) [Example 205, 2-[4-[[[5-fluoro-6-[(3S)-3-[4-(trifluoromethyl)phenyl]morpholin-4-yl]pyrimidin-4-yl]amino]methyl]cyclohexyl]acetic acid] | < 0.5 µM | >50 % inhibition | >80 % inhibition
5 | NC(=O)CC1CCC(CNc2ncnc(N3CCOC[C@@H]3c3ccc(C(F)(F)F)cc3)c2F)CC1 (stereo partly drawn) [Example 206, 2-[4-[[[5-fluoro-6-[(3S)-3-[4-(trifluoromethyl)phenyl]morpholin-4-yl]pyrimidin-4-yl]amino]methyl]cyclohexyl] acetamide] | < 1 µM | >20 % inhibition | >80 % inhibition
6 | O=C(O)Cc1ccc(CNc2ncnc(N3CCC[C@@H]3c3ccc(C(F)(F)F)cc3)c2F)s1 [Example 207, 2-[5-[[[5-fluoro-6-[(2R)-2-[4-(trifluoromethyl)phenyl]pyrrolidin-1-yl]pyrimidin-4-yl]amino]methyl]-2-thienyl]acetic acid] | < 0.5 µM | >20 % inhibition | >80 % inhibition
7 | Cc1ccc(CNc2ncnc(N3CCC[C@@H]3c3ccc(C(F)(F)F)cc3F)c2F)cn1 [Example 210, 5-fluoro-6-[(2R)-2-[2-fluoro-4-(trifluoromethyl)phenyl]pyrrolidin-1-yl]-N-[(6-methyl-3-pyridyl)methyl]pyrimidin-4-amine] | < 1 µM | >50 % inhibition | >80 % inhibition
8 | OC1(CNc2ncnc(N3CCC[C@@H]3c3ccc(C(F)(F)F)cc3)c2F)CCOC1 (stereo partly drawn) [Example 220, 3-[[[5-fluoro-6-[(2R)-2-[4-(trifluoromethyl)phenyl]pyrrolidin-1-yl]pyrimidin-4-yl]amino]methyl]tetrahydrofuran-3-ol] | < 0.5 µM | >20 % inhibition | >80 % inhibition

The next lines start with the values.

Row | IC50 [1] | Gal4 activity range @ 0.1 μM (% inhibition) [2] | Gal4 activity range @ 1 μM (% inhibition) [2] | SMILES
9 | < 1 µM | >20 % inhibition | >80 % inhibition | OC1CCCCC1CNc1ncnc(N2CCC[C@@H]2c2ccc(C(F)(F)F)cc2)c1F (stereo partly drawn) [Example 200, 2-[[[5-fluoro-6-[(2R)-2-[4-(trifluoromethyl)phenyl]pyrrolidin-1-yl]pyrimidin-4-yl]amino]methyl]cyclohexanol]
10 | < 10 µM | >0 % inhibition | >50 % inhibition | O=S1(=O)CCOC(CNc2ncnc(N3CCC[C@@H]3c3ccc(C(F)(F)F)cc3)c2F)C1 (stereo partly drawn) [Example 202, N-[(4,4-dioxo-1,4-oxathian-2-yl)methyl]-5-fluoro-6-[(2R)-2-[4-(trifluoromethyl)phenyl]pyrrolidin-1-yl]pyrimidin-4-amine]
11 | < 2 µM | >0 % inhibition | >50 % inhibition | Fc1c(NCc2cccs2)ncnc1N1CCC[C@@H]1c1ccc(C(F)(F)F)cc1 [Example 203, 5-fluoro-N-(2-thienylmethyl)-6-[(2R)-2-[4-(trifluoromethyl)phenyl]pyrrolidin-1-yl]pyrimidin-4-amine]
12 | < 0.5 µM | >50 % inhibition | >80 % inhibition | Fc1c(NCC2CCOCC2)ncnc1N1CCC[C@@H]1c1ccc(C(F)(F)F)cc1 [Example 208, 5-fluoro-N-(tetrahydropyran-4-ylmethyl)-6-[(2R)-2-[4-(trifluoromethyl)phenyl]pyrrolidin-1-yl]pyrimidin-4-amine]
13 | < 1 µM | >20 % inhibition | >50 % inhibition | Cc1ccc(CNc2ncnc(N3CCCC3(C)c3ccc(C(F)(F)F)cc3)c2F)cn1 (stereo not drawn) [Example 209, 5-fluoro-N-[(6-methyl-3-pyridyl)methyl]-6-[2-methyl-2-[4-(trifluoromethyl)phenyl]pyrrolidin-1-yl]pyrimidin-4-amine]
14 | < 1 µM | >0 % inhibition | >50 % inhibition | Cc1ccc(CNc2ncnc(N3CC(C)CC3c3ccc(C(F)(F)F)cc3)c2F)cn1 (stereo not drawn) [Example 211, 5-fluoro-N-[(6-methyl-3-pyridyl)methyl]-6-[4-methyl-2-[4-(trifluoromethyl)phenyl]pyrrolidin-1-yl]pyrimidin-4-amine]
15 | < 0.5 µM | >50 % inhibition | >80 % inhibition | OCCC1(CNc2ncnc(N3CCC[C@@H]3c3ccc(C(F)(F)F)cc3)c2F)CCOCC1 [Example 221, 2-[4-[[[5-fluoro-6-[(2R)-2-[4-(trifluoromethyl)phenyl]pyrrolidin-1-yl]pyrimidin-4-yl]amino]methyl]tetrahydropyran-4-yl]ethanol]
16 | < 2 µM | >20 % inhibition | >80 % inhibition | O=S1(=O)CCC(CNc2ncnc(N3CCC[C@@H]3c3ccc(C(F)(F)F)cc3)c2F)CC1 [Example 222, N-[(1,1-dioxothian-4-yl)methyl]-5-fluoro-6-[(2R)-2-[4-(trifluoromethyl)phenyl]pyrrolidin-1-yl]pyrimidin-4-amine]
17 | < 0.5 µM | >50 % inhibition | >80 % inhibition | O=S1(=O)CCC(O)(CNc2ncnc(N3CCC[C@@H]3c3ccc(C(F)(F)F)cc3)c2F)CC1 [Example 223, 4-[[[5-fluoro-6-[(2R)-2-[4-(trifluoromethyl)phenyl]pyrrolidin-1-yl]pyrimidin-4-yl]amino]methyl]-1,1-dioxo-thian-4-ol]
